# Measurements reported in ChEMBL document CHEMBL6182831, “Thiazole-fused androstenone and ethisterone derivatives: potent β- and γ-actin cytoskeleton inhibitors to treat melanoma tumors” (RSC Med Chem, 2025).
# Calls of active or inactive are those of the source. The calls are words filed in the database; no cut-off is given here.
# Columns and labels:
# [1] = Toxicity in C57BL/6 mouse assessed as animal survival at 40 mg/kg, ip administered once daily from 6 to 9 days and every alternate days till 18; format: organism-based; conditions: in vivo, time 13 day
# [2] = Toxicity in C57BL/6 mouse assessed as change in albumin level at 40 mg/kg, ip administered once daily and measured up to 20 days; format: organism-based; conditions: in vivo, 480 h, time < 20 day
# SK-MEL-28 [3] = test: Inhibition of cell adhesion in human SK-MEL-28 cells assessed as reduction in number of adherent cells incubated for 1.5 hrs; format: functional, cell-based
# B16-F10 [4] = test: Cytotoxicity against mouse B16-F10 cells assessed as inhibition of cell growth incubated for 24 hrs by resazurin staining based analysis; format: functional; conditions: B16-F10, 24 h
# SK-MEL-28 [5] = test: Inhibition of cell migration in human SK-MEL-28 cells at 1.2 uM incubated for 24 hrs by wound healing assay; format: functional, cell-based
# [6] = Toxicity in C57BL/6 mouse assessed as change in BUN level at 40 mg/kg, ip administered once daily and measured up to 20 days; format: organism-based; conditions: in vivo, 480 h, time < 20 day
# [7] = Toxicity in C57BL/6 mouse assessed as change in amylase level at 40 mg/kg, ip administered once daily and measured up to 20 days; format: organism-based; conditions: in vivo, 480 h, time < 20 day
# SK-MEL-28 [8] = test: Effect on ACTB mRNA expression in human SK-MEL-28 cells at 2 uM measured after 24 hrs by qRT-PCR analysis; format: functional, cell-based
# B16-F10 [9] = test: Induction of cell cycle arrest in mouse B16-F10 cells assessed as accumulation of cells at G2/M phase at 3 uM incubated for 24 hrs by PI staining based flow cytometry analysis; format: functional
# B16-F10 [10] = test: Inhibition of cell adhesion in mouse B16-F10 cells at 2.5 uM incubated for 1.5 hrs; format: functional, cell-based
# B16-F10 [11] = test: Inhibition of colony formation in mouse B16-F10 cells at 3 uM incubated for 6 days by crystal violet staining based analysis; format: functional; conditions: B16-F10, 144 h, time 6 day
# SK-MEL-28 [12] = test: Induction of cell cycle arrest in human SK-MEL-28 cells assessed as accumulation of cells at G2/M phase at 3 uM incubated for 24 hrs by PI staining based flow cytometry analysis; format: functional
# B16-F10 [13] = test: Antitumor activity against mouse B16-F10 cells implanted in C57BL/6 mouse assessed as inhibition of tumor growth at 40 mg/kg, ip administered once daily from 6 to 9 days and every alternate days till 18; format: functional, organism-based; conditions: time 13.0 day
# SK-MEL-28 [14] = test: Effect on ACTG1 level in human SK-MEL-28 cells at 2 uM measured after 24 hrs by Western blot analysis; format: functional, cell-based
# LOX IMVI [15] = test: Upregulation of PARVB mRNA expression in human LOX IMVI cells at 2 uM measured for 2 hrs by qPCR analysis; format: functional, cell-based
# SK-MEL-28 [16] = test: Upregulation of PARVB mRNA expression in human SK-MEL-28 cells at 2 uM measured for 2 hrs by qPCR analysis; format: functional, cell-based
# B16-F10 [17] = test: Inhibition of cell migration in mouse B16-F10 cells at 2 uM incubated for 24 hrs by wound healing assay; format: functional, cell-based
# [18] = Toxicity in C57BL/6 mouse assessed as animal survival at 40 mg/kg, ip administered once daily from 6 to 9 days and every alternate days till 19; format: organism-based; conditions: in vivo, time 14 day
# SK-MEL-28 [19] = test: Inhibition of cell adhesion in human SK-MEL-28 cells at 2.5 uM incubated for 1.5 hrs; format: functional, cell-based
# SK-MEL-5 = test: Cytotoxicity against human SK-MEL-5 cells assessed as inhibition of cell growth incubated for 24 hrs by resazurin staining based analysis; format: functional; conditions: SK-MEL-5, 24 h
# SK-MEL-25 = test: Cytotoxicity against human SK-MEL-25 cells assessed as inhibition of cell growth incubated for 24 hrs by resazurin staining based analysis; format: functional; conditions: SK-MEL-25, 24 h
# SK-MEL-28 [20] = test: Cytotoxicity against human SK-MEL-28 cells assessed as inhibition of cell growth incubated for 24 hrs by resazurin staining based analysis; format: functional; conditions: SK-MEL-28, 24 h
# [21] = Toxicity in C57BL/6 mouse assessed as change in ALP level at 40 mg/kg, ip administered once daily and measured up to 20 days; format: organism-based; conditions: in vivo, 480 h, time < 20 day
# B16-F10 [22] = test: Induction of apoptosis in mouse B16-F10 cells at 8 uM measured for 24 hrs by Annexin V FITC/PI staining based flow cytometry analysis; format: functional, cell-based
# B16-F10 [23] = test: Inhibition of colony formation in mouse B16-F10 cells at 6 uM incubated for 6 days by crystal violet staining based analysis; format: functional; conditions: B16-F10, 144 h, time 6 day
# SK-MEL-28 [24] = test: Effect on ACTB level in human SK-MEL-28 cells at 2 uM measured after 24 hrs by Western blot analysis; format: functional, cell-based
# [25] = Toxicity in C57BL/6 mouse assessed as change in creatinine level at 40 mg/kg, ip administered once daily and measured up to 20 days; format: organism-based; conditions: in vivo, 480 h, time < 20 day
# B16-F10 [26] = test: Inhibition of cell adhesion in mouse B16-F10 cells assessed as reduction in number of adherent cells incubated for 1.5 hrs; format: functional, cell-based
# SK-MEL-28 [27] = test: Downregulation of ACTB level in human SK-MEL-28 cells at 2 uM measured for 24 hrs by qRT-PCR analysis; format: functional, cell-based
# SK-MEL-28 [28] = test: Effect on PARVB level in human SK-MEL-28 cells at 2 uM measured after 24 hrs by Western blot analysis; format: functional, cell-based
# [29] = Toxicity in C57BL/6 mouse assessed as change in ALT level at 40 mg/kg, ip administered once daily and measured up to 20 days; format: organism-based; conditions: in vivo, 480 h, time < 20 day
# SK-MEL-28 [30] = test: Effect on ACTG1 mRNA expression in human SK-MEL-28 cells at 2 uM measured after 24 hrs by qRT-PCR analysis; format: functional, cell-based
# B16-F10 [31] = test: Antitumor activity against mouse B16-F10 cells implanted in C57BL/6 mouse assessed as reduction of tumor weight at 40 mg/kg, ip administered once daily from 6 to 9 days and every alternate days till 18; format: functional, organism-based; conditions: time 13.0 day
# [32] = Toxicity in C57BL/6 mouse assessed as change in total bilirubin level at 40 mg/kg, ip administered once daily and measured up to 20 days; format: organism-based; conditions: in vivo, 480 h, time < 20 day
# B16-F10 [33] = test: Antitumor activity against mouse B16-F10 cells implanted in C57BL/6 mouse assessed as reduction of tumor weight at 40 mg/kg, ip administered once daily from 6 to 12 days and every alternate days till 18; format: functional, organism-based; conditions: time 13.0 day
# [34] = Toxicity in C57BL/6 mouse assessed as change in body weight at 40 mg/kg, ip administered once daily and measured up to 20 days; format: organism-based; conditions: in vivo, 480 h, time < 20 day
# LOX IMVI [35] = test: Cytotoxicity against human LOX IMVI cells assessed as inhibition of cell growth incubated for 24 hrs by resazurin staining based analysis; format: functional
# SK-MEL-28 [36] = test: Inhibition of cell adhesion in human SK-MEL-28 cells at 1.5 uM incubated for 1.5 hrs; format: functional, cell-based
# SK-MEL-28 [37] = test: Inhibition of colony formation in human SK-MEL-28 cells at 3 uM incubated for 8 days by crystal violet staining based analysis; format: functional; conditions: SK-MEL-28, 192 h, time 8 day
# SK-MEL-28 [38] = test: Inhibition of colony formation in human SK-MEL-28 cells at 6 uM incubated for 6 days by crystal violet staining based analysis; format: functional; conditions: SK-MEL-28, 144 h, time 6 day
# SK-MEL-28 [39] = test: Inhibition of cell migration in human SK-MEL-28 cells at 1 uM incubated for 24 hrs by wound healing assay; format: functional, cell-based
# SK-MEL-28 [40] = test: Inhibition of colony formation in human SK-MEL-28 cells at 3 uM incubated for 6 days by crystal violet staining based analysis; format: functional; conditions: SK-MEL-28, 144 h, time 6 day
# SK-MEL-28 [41] = test: Inhibition of colony formation in human SK-MEL-28 cells at 6 uM incubated for 8 days by crystal violet staining based analysis; format: functional; conditions: SK-MEL-28, 192 h, time 8 day
# B16-F10 [42] = test: Inhibition of cell adhesion in mouse B16-F10 cells at 1.5 uM incubated for 1.5 hrs; format: functional, cell-based
Compound,survival at 312 h [1] [%],Activity [2],inhibition (SK-MEL-28 [3]),IC50 (B16-F10 [4]) [µM],Activity [6],Activity [7],inhibition at 3 µM (B16-F10 [11]) [%],Activity (SK-MEL-28 [12]),TGI (B16-F10 [13]),inhibition (B16-F10 [17]),survival at 336 h [18] [%],IC50 (SK-MEL-5) [µM],IC50 (SK-MEL-25) [µM],IC50 (SK-MEL-28 [20]) [µM],Activity [21],Activity (B16-F10 [22]),inhibition at 6 µM (B16-F10 [23]) [%],Activity [25],inhibition (B16-F10 [26]),IC50 (LOX IMVI [35]) [µM],also measured
C#C[C@]1(O)CC[C@H]2[C@@H]3CC=C4c5sc(-c6ccc(O)c(O)c6)nc5CC[C@]4(C)[C@H]3CC[C@@]21C,~80,Non-toxic,Active,2.6,Non-toxic,Non-toxic,100,Active,Active,Active,80,3.7,2.5,3.6,Non-toxic,Active,100,Non-toxic,Active,4.4,inhibition (SK-MEL-28 [5]): Active; Activity (SK-MEL-28 [8]): Active; Activity (B16-F10 [9]): Active; inhibition (B16-F10 [10]): Active; Activity (SK-MEL-28 [14]): Active; Activity (LOX IMVI [15]): Active; Activity (SK-MEL-28 [16]): Active; inhibition (SK-MEL-28 [19]): Active; Activity (SK-MEL-28 [24]): Active; Activity (SK-MEL-28 [27]): Active; Activity (SK-MEL-28 [28]): Active; Activity [29]: Non-toxic; Activity (SK-MEL-28 [30]): Active; Activity (B16-F10 [31]): Active; Activity [32]: Non-toxic; Activity (B16-F10 [33]): Active; Activity [34]: Non-toxic
C#C[C@]1(O)CC[C@H]2[C@@H]3CC=C4c5sc(Nc6ccc(F)cc6F)nc5CC[C@]4(C)[C@H]3CC[C@@]21C,,,Active,2.5,,,100,Active,Active,Active,,1.9,2.4,1.8,,Active,100,,Active,1.6,inhibition (SK-MEL-28 [36]): Active; inhibition at 3 µM (SK-MEL-28 [37]): 100%; inhibition at 6 µM (SK-MEL-28 [38]): 100%; inhibition (SK-MEL-28 [39]): Active; inhibition at 3 µM (SK-MEL-28 [40]): 100%; Activity (SK-MEL-28 [27]): Active; inhibition at 6 µM (SK-MEL-28 [41]): 100%; Activity (B16-F10 [31]): Active; inhibition (B16-F10 [42]): Active
C#C[C@]1(O)CC[C@H]2[C@@H]3CC=C4c5sc(Nc6ccccc6)nc5CC[C@]4(C)[C@H]3CC[C@@]21C,~80,Non-toxic,,2.7,Non-toxic,Non-toxic,,,,,10,2.4,1.6,1.7,Non-toxic,,,Non-toxic,,1.6,Activity [29]: Non-toxic; Activity [32]: Non-toxic; Activity (B16-F10 [33]): Active; Activity [34]: Non-toxic
